Experimental findings from US9765073B2, “Cyclopropabenzofuranyl pyridopyrazinediones” (Pfizer Inc., priority 2015, dated 2017) are described below.

Structures are written as SMILES.

The test system of this test is γ-secretase. Kind of test: Cell-Based γ-Secretase Assay with ELISA Readout. On the set-up: species or system human. Particulars: for IC50: production of Aβ(1-42) in human WT-APP overexpressing CHO cells, ~24 h, footnote a = single determination, footnote b = geometric mean of ≧5 determinations, read-out: Aβ 42B IC50 (nM) Geometric mean of 2-4 determinations (unless otherwise indicated). Here is the method: The ability of compounds to modulate production of amyloid beta protein Aβ(1-42) was determined using human WT-APP overexpressing CHO cells. Cells were plated at 22,000 cells/100 μL well in 96 well tissue culture treated, clear plates (Falcon) in DMEM/F12 based medium and incubated for 24 h at 37° C. Compounds for testing were diluted in 100% DMSO to achieve an eleven point, half log, dose response for IC50 determinations. Compounds were added in fresh medium to achieve 1% final DMSO. Appropriate vehicle or inhibitor controls were added into control wells individually to obtain minimum or maximum inhibition values, respectively, for the assay signal window before the plates were incubated for ˜24 h at 37° C. This procedure produces conditioned media in each well, which is tested for Aβ(1-42) levels in the ELISA detection step described next. The remaining cell cultures in each well are also tested for cell toxicity as described below.
Coating of ELISA assay plates was initiated by addition of 50 μL/well of an in-house Aβ(1-42) specific antibody (3 μg/mL) in 0.1 M NaHCO3 (pH 9.0) into black 384-well Maxisorp® plates (Nunc); incubation was carried out overnight at 4° C. The capture antibody was then aspirated from the ELISA assay plates and plates were washed either 2×100 μL with a Matrical Squirt plate washer, or 3×90 μL with a Thermo Combi, using Wash Buffer (Dulbecco's PBS, 0.05% Tween 20). 90 μL/well of Blocking Buffer (Dulbecco's PBS, 1.0% BSA (Sigma A7030) was then added to plates. Ambient temperature incubation was allowed to proceed for a minimum of 2 h. Blocking Buffer was then removed and 20 μL/well Assay Buffer (Dulbecco's PBS, 1.0% BSA (Sigma A7030), 0.05% Tween 20) was then added. At this point, 35 μL (40 μL prior to August, 2012) (in duplicate) of experimental conditioned media (described above) was transferred into wells of the blocked ELISA plates containing the capture antibody, followed by overnight incubation at 4° C. Cell toxicity was also measured in the corresponding remaining cells after removal of the conditioned media for the Aβ(1-42) assay by a colorimetric cell proliferation assay (CellTiter 96® AQueous One Solution Cell Proliferation Assay, Promega) according to the manufacturer's instructions.
After overnight incubation of the ELISA assay plates at 4° C., unbound Aβ peptides were removed via either 2×100 μL washes with a Matrical Squirt plate washer, or 3×90 μL washes with a Thermo Combi, using Wash Buffer. Europium (Eu) labeled (custom labeled, PerkinElmer) Aβ(1-16) 6e10 Monoclonal Antibody (Covance #SIG-39320) was added, (50 μL/well Eu-6e10@1:10,000, 20 uM EDTA) in Assay Buffer. Incubation at ambient temperature for a minimum of 2 h was followed by either 2×100 μL washes with a Matrical Squirt plate washer, or 3×90 μL washes with a Thermo Combi, using Wash Buffer, before 30 μL/well of Delfia Enhancement Solution (PerkinElmer) was added. Following 30 to 60 min ambient temperature incubation, the plates were read on an EnVision plate reader (PerkinElmer) using standard DELFIA TRF settings. Data analysis including inhibitory IC50 determination was performed using nonlinear regression fit analysis (in-house software) and the appropriate plate mean values for the maximum and minimum inhibition controls.
In general terms: ELISA stands for enzyme-linked immunosorbent assay.

Turning to `Cc1cn(-c2ccc3n(c2=O)CCN(CC24CC2(C)Oc2cc(F)c(OC(F)(F)F)cc24)C3=O)cn1` (stereo not drawn) [Example C40, 2-{[4-fluoro-1a-methyl-5-(trifluoromethoxy)-1,1a-dihydro-6bH-cyclopropa[b][1]benzofuran-6b-yl]methyl}-7-(4-methyl-1H-imidazol-1-yl)-3,4-dihydro-2H-pyrido[1,2-a]pyrazine-1,6-dione], the concentration for half-maximal inhibition (IC50) came to 11.2 nM. Same read-out and setting: the value for `Cc1cn(-c2ccc3n(c2=O)CCN(C[C@@]24C[C@]2(C)Oc2cc(F)c(OC(F)F)cc24)C3=O)cn1` (single isomer, unassigned) [Example 12] was 17.8 nM. Same read-out and setting: for `Cc1cn(-c2ccc3n(c2=O)CCN(C[C@@]24C[C@]2(C)Oc2ccc(C(F)(F)F)cc24)C3=O)cn1` [Example 15, 7-(4-methyl-1H-imidazol-1-yl)-2-{[(1aS,6bS)-1a-methyl-5-(trifluoromethyl)-1,1a-dihydro-6bH-cyclopropa[b][1]benzofuran-6b-yl]methyl}-3,4-dihydro-2H-pyrido[1,2-a]pyrazine-1,6-dione] the value was 8.5 nM; for `Cc1cn(-c2ccc3n(c2=O)CCN(C[C@@]24C[C@]2(C)Oc2cc(Cl)c(C(F)(F)F)cc24)C3=O)cn1` (single isomer, unassigned) [Example 10], 3 nM. Still for that read-out and setting: the value for `Cc1cn(-c2ccc3n(c2=O)CCN(C[C@]24C[C@@]2(C)Oc2cc(F)c(C(F)(F)F)cc24)C3=O)cn1` (single isomer, unassigned) [Example 18] was 20.2 nM; that for `Cc1cn(-c2ccc3n(c2=O)CCN(CC24CC2(C)Oc2ccc(OC(F)(F)F)cc24)C3=O)cn1` (stereo not drawn) [Example C22, 7-(4-methyl-1H-imidazol-1-yl)-2-{[1a-methyl-5-(trifluoromethoxy)-1,1a-dihydro-6bH-cyclopropa[b][1]benzofuran-6b-yl]methyl}-3,4-dihydro-2H-pyrido[1,2-a]pyrazine-1,6-dione] was 19.5 nM; that for `Cc1cn(-c2ccc3n(c2=O)CCN(C[C@@]24C[C@]2(C)Oc2c(F)cc(C(F)(F)F)cc24)C3=O)cn1` (single isomer, unassigned) [Example 19] was 11.1 nM. As for `Cc1cn(-c2ccc3n(c2=O)CCN(C[C@]24C[C@@]2(C)Oc2cc(Cl)c(C(F)(F)F)cc24)C3=O)cn1` (single isomer, unassigned) [Example 11], the IC50 came out at 10 nM. Turning to `Cc1cn(-c2ccc3n(c2=O)CCN(C[C@@]24C[C@]2(C)Oc2c(Cl)cc(C(F)(F)F)cc24)C3=O)cn1` (single isomer, unassigned) [Example 21], the IC50 was determined as 16 nM. For the compound `Cc1cn(-c2ccc3n(c2=O)CCN(C[C@@]24C[C@]2(C)Oc2ccc(OC(F)(F)F)cc24)C3=O)cn1` (single isomer, unassigned) [Example 2], the concentration for half-maximal inhibition (IC50) amounted to 6.5 nM. For the same compound, for the setting “comparison of the Table 7 potencies of separated enantiomers”, the “potency compared with its enantiomer” value is reported as “more potent than its enantiomer 3”. Turning to `Cc1cn(-c2ccc3n(c2=O)CCN(C[C@]24C[C@@]2(C)Oc2c(Cl)cc(C(F)(F)F)cc24)C3=O)cn1` (single isomer, unassigned) [Example 22], the half-inhibitory concentration (IC50) worked out at 58.3 nM.

`Cc1cn(-c2ccc3n(c2=O)CCN(C[C@]24C[C@@]2(C)Oc2cc(F)c(OC(F)(F)F)cc24)C3=O)cn1` (single isomer, unassigned) [Example 7]: the IC50 was 38 nM. The same measure, in the same setting: the value for `Cc1ncn(-c2ccc3n(c2=O)CCN(C[C@@]24C[C@]2(C)Oc2cc(F)c(OC(F)(F)F)cc24)C3=O)n1` (single isomer, unassigned) [Example 8] was 36.6 nM; that for `Cc1cn(-c2ccc3n(c2=O)CCN(C[C@@]24C[C@]2(C)Oc2c(F)cc(OC(F)(F)F)cc24)C3=O)cn1` (single isomer, unassigned) [Example 4] was 4.9 nM.

Turning to `Cc1cn(-c2ccc3n(c2=O)CCN(C[C@]24C[C@@]2(C)Oc2c(F)cc(OC(F)(F)F)cc24)C3=O)cn1` (single isomer, unassigned) [Example 5], the IC50 amounted to 59.2 nM. Still for that read-out and setting: for `Cc1ncn(-c2ccc3n(c2=O)CCN(CC24CC2(C)Oc2cc(F)c(OC(F)(F)F)cc24)C3=O)n1` (stereo not drawn) [Example C44, 2-{[4-fluoro-1a-methyl-5-(trifluoromethoxy)-1,1a-dihydro-6bH-cyclopropa[b][1]benzofuran-6b-yl]methyl}-7-(3-methyl-1H-1,2,4-triazol-1-yl)-3,4-dihydro-2H-pyrido[1,2-a]pyrazine-1,6-dione] the value was 68.9 nM.

In the case of `C[C@]12C[C@@]1(CN1CCn3c(ccc(-n4cnc(CO)c4)c3=O)C1=O)c1cc(OC(F)(F)F)c(F)cc1O2` [Example 14, 2-{[(1aS,6bS)-4-fluoro-1a-methyl-5-(trifluoromethoxy)-1,1a-dihydro-6bH-cyclopropa[b][1]benzofuran-6b-yl]methyl}-7-[4-(hydroxymethyl)-1H-imidazol-1-yl]-3,4-dihydro-2H-pyrido[1,2-a]pyrazine-1,6-dione], the concentration for half-maximal inhibition (IC50) stood at 18.7 nM. Turning to `Cc1cn(-c2ccc3n(c2=O)CCN(C[C@]24C[C@@]2(C)Oc2c(F)cc(C(F)(F)F)cc24)C3=O)cn1` (single isomer, unassigned) [Example 20], the IC50 is 50.1 nM. The same measure, in the same setting: for `Cc1cn(-c2ccc3n(c2=O)CCN(CC24CC2(C)Oc2c(F)cc(OC(F)(F)F)cc24)C3=O)cn1` (racemic) [Example C33, 2-{[3-fluoro-1a-methyl-5-(trifluoromethoxy)-1,1a-dihydro-6bH-cyclopropa[b][1]benzofuran-6b-yl]methyl}-7-(4-methyl-1H-imidazol-1-yl)-3,4-dihydro-2H-pyrido[1,2-a]pyrazine-1,6-dione] the value was 9.3 nM; for `Cc1cn(-c2ccc3n(c2=O)CCN(C[C@]24C[C@@]2(C)Oc2cc(F)c(OC(F)F)cc24)C3=O)cn1` (single isomer, unassigned) [Example 13], 84.9 nM; for `Cc1cn(-c2ccc3n(c2=O)CCN(C[C@@]24C[C@]2(C)Oc2cc(F)c(OC(F)(F)F)cc24)C3=O)cn1` (single isomer, unassigned) [Example 6], 7 nM. For `Cc1cn(-c2ccc3n(c2=O)CCN(CC24CC2Oc2ccc(C(F)(F)F)cc24)C3=O)cn1` (stereo not drawn) [Example 1, 7-(4-Methyl-1H-imidazol-1-yl)-2-{[5-(trifluoromethyl)-1,1a-dihydro-6bH-cyclopropa[b][1]benzofuran-6b-yl]methyl}-3,4-dihydro-2H-pyrido[1,2-a]pyrazine-1,6-dione], the IC50 was 48.5 nM.

Take `Cc1cn(-c2ccc3n(c2=O)CCN(C[C@]24C[C@@]2(C)Oc2ccc(C(F)(F)F)cc24)C3=O)cn1` [Example 16, 7-(4-methyl-1H-imidazol-1-yl)-2-{[(1aR,6bR)-1a-methyl-5-(trifluoromethyl)-1,1a-dihydro-6bH-cyclopropa[b][1]benzofuran-6b-yl]methyl}-3,4-dihydro-2H-pyrido[1,2-a]pyrazine-1,6-dione]: the IC50 was determined as 47.3 nM. Take `Cc1ncn(-c2ccc3n(c2=O)CCN(C[C@]24C[C@@]2(C)Oc2cc(F)c(OC(F)(F)F)cc24)C3=O)n1` (single isomer, unassigned) [Example 9]: the IC50 is 519 nM. Same read-out and setting: the value for `Cc1cn(-c2ccc3n(c2=O)CCN(C[C@@]24C[C@]2(C)Oc2cc(F)c(C(F)(F)F)cc24)C3=O)cn1` (single isomer, unassigned) [Example 17] was 4.4 nM; that for `Cc1cn(-c2ccc3n(c2=O)CCN(C[C@]24C[C@@]2(C)Oc2ccc(OC(F)(F)F)cc24)C3=O)cn1` (single isomer, unassigned) [Example 3] was 59.2 nM.

As usually defined, the IC50 is the concentration needed to halve the response being measured.
